{"source": "patent US20030229053A1", "about": "“Compounds and methods for the treatment or prevention of flavivirus infections” (Shire BioChem Inc., priority 2001, published 2003)", "data": [{"target": "HCV NS5B RNA-dependent RNA polymerase (Hepatitis C virus genotype 1b, UniProt P26663)", "sequence (P26663 2420-3010 limits assumed)": "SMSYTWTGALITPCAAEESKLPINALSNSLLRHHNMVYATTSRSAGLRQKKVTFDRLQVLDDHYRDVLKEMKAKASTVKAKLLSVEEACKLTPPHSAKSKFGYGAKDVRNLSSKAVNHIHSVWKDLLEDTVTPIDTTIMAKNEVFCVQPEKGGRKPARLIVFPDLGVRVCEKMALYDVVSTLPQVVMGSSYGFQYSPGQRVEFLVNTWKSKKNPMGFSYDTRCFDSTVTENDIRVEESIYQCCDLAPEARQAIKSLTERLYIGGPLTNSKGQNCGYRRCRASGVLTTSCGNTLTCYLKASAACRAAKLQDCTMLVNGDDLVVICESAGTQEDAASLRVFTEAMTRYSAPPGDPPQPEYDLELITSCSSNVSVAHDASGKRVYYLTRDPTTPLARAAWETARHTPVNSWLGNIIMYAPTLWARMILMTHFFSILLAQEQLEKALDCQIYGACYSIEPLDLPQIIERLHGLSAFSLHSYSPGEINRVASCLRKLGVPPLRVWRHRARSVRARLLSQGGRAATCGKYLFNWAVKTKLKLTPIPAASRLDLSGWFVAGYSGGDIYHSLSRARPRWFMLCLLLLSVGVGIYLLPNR", "experiment": "In vitro RNA-dependent RNA polymerase assay (Assay 1), polyA/oligo dT, TCA precipitation", "assay_type": "biochemical", "conditions": "not given", "protocol": "(§1) Purification of Recombinant NS5B Using Fast Protein Liquid Chromatography (FPLC):\n(§2) Soluble NS5B protein in the S3 fraction was diluted to lower the NaCl concentration to 300 mM, then it incubated batchwise with DEAE sepharose beads (Amersham-Pharmacia) for 2 hrs at 4° C., as described by Behrens et al. (1996). Unbound material was cleared by centrifugation for 15 min at 4° C., at 25,000 rpm using a SW41 rotor (Beckman). The supernatant was further diluted to lower the NaCl concentration to 200 mM and subsequently loaded, with a flow rate of 1 ml/min, on a 5 ml HiTrap® heparin column (Amersham-Pharmacia) connected to an FPLC® system (Amersham-Pharmacia). Bound proteins were eluted in 1 ml fractions, using a continuous NaCl gradient of 0.2 to 1 M, over a 25 ml volume. NS5B-containing fractions were identified by sodium dodecyl sulfate polyacrylamide gel electrophoresis (SDS-PAGE), followed by western blotting using the anti-NS5B antiserum at a dilution of 1:2000. Positive fractions were pooled and the elution buffer was exchanged against a 50 mM NaPO4 pH 7.0, 20% glycerol, 0.5% triton X-100 and 10 mM DTT, using a PD-10 column (Amersham-Pharmacia). The sample was then loaded onto a 1 ml HiTrap® SP column (Amersham-Pharmacia), with a flow rate of 0.1 ml/min. Bound proteins were eluted using a continuous 0 to 1 M NaCl gradient over a 15 ml volume. Eluted fractions were analyzed by SDS-PAGE and western blotting. Alternatively, proteins were visualized, following SDS-PAGE, by silver staining using the Silver Stain Plus kit (BioRad) as described by the manufacturer. […]\n(§3) In vitro RNA-dependent RNA Polymerase Assays Used to Evaluate Biaryl Analogues (Assay 1):\n(§4) RdRp assays were conducted using the homopolymeric template/primer polyA/oligo dT. All RdRp reactions were performed in a total volume of 50 μl, and in a basic buffer consisting of 20 mM Tris-HCl pH 7.5, 1 mM DTT, 50 mM NaCl, 5 mM MgCl2, 0.5 μCi […] (3000 Ci/mmol), 15 μM cold UTP and 20 U RNasin (Promega). Standard HCV RdRp reactions contained 200 ng of purified NS5B protein. PolyA RNAs (Amersham-Pharmacia) was resuspended at 400 ng/μl. The primer oligodT15 (Canadian life technologies) was diluted to a concentration of […] (7.6 ng/μl). Templates and primers were mixed volume to volume, denatured at 95° C. for 5 min and annealed at 37° C. for 10 min. Following a two hour incubation at 22° C., reactions were stopped by the addition of 100 μg of sonicated salmon sperm DNA (Life Technologies) and 1 ml of 10% trichloroacetic acid-0.5% tetrasodium pyrophosphate (TCA-PPi). Nucleic acids were precipitated at 4° C. for 30 min after which samples were filtered on GF/C glass microfiber filters (Millipore). Membranes were subsequently washed with 25 ml of a 1% TCA-0.1% PPi solution, then air dried. Incorporated radioactivity was quantified using a liquid scintillation counter (1450-Microbeta, Wallac). Results are shown in Table 1, in the column indicated as Assay 1.", "units": {"IC50": "µM"}, "values": [{"smiles": "O=C(O)[C@H](Cc1ccccc1)N(Cc1cccc(Br)c1)C(=O)c1ccc(Cl)cc1Cl", "note": "[compound #9, (2s)-2-[(3-Bromo-benzyl)-(2,4-dichloro-benzoyl)-amino]-3-phenyl-propionic acid]", "IC50": "< 5"}, {"smiles": "O=C(O)[C@H](Cc1ccccc1)N(Cc1cccc(Br)c1)C(=O)c1ccc(Cl)cc1", "note": "[compound #15, (2s)-2-[(3-Bromo-benzyl)-(4-chloro-benzoyl)-amino]-3-phenyl-propionic acid]", "IC50": "5 to 20"}]}, {"target": "HCV NS5B RNA-dependent RNA polymerase (Hepatitis C virus genotype 1b, UniProt P26663)", "experiment": "In vitro RNA-dependent RNA polymerase assay (Assay 1), polyA/oligo dT, TCA precipitation", "assay_type": "biochemical", "conditions": "polyA/oligo dT template/primer, 200 ng NS5B, 2 h at 22° C.; read-out: RNA pol Assay 1 IC50 (μm)", "protocol": "as §1, §2, §3, §4", "units": {"IC50": "µM"}, "values": [{"smiles": "O=C(O)C(Cc1ccccc1)N(Cc1ccc(-c2cc3ccccc3o2)cc1)C(=O)c1ccc(Cl)cc1Cl", "note": "(stereo in doubt) [compound #4, (2s)-2-[(4-Benzofuran-2-yl-benzyl)-(2,4-dichloro-benzoyl)-amino]-3-phenyl-propionic acid]", "IC50": "< 5"}, {"smiles": "COc1cc(C)c(S(=O)(=O)N(Cc2ccc(-c3cc4ccccc4o3)cc2)C(Cc2ccccc2)C(=O)O)c(C)c1C", "note": "(stereo in doubt) [compound #6, (2s)-2-[(4-Benzofuran-2-yl-benzyl)-(4-methoxy-2,3,6-trimethyl-benzenesulfonyl)-amino]-3-phenyl-propionic acid]", "IC50": "< 5"}, {"smiles": "C=CCN(C(=O)c1ccc(Cl)cc1I)C(Cc1ccccc1)C(=O)O", "note": "(stereo not shown) [Compound #27, 2-[Allyl-(4-chloro-2-iodo-benzoyl)-amino]-3-phenyl-propionic acid]", "IC50": "5 to 20"}, {"smiles": "O=C(O)CC(c1cccs1)N(Cc1ccc(-c2cccs2)cc1)C(=O)Nc1cc(Cl)nc(Cl)c1", "note": "(stereo not shown) [compound #1, 3-[3-(2,6-Dichloro-pyridin-4-yl)-1-(4-thiophen-2-yl-benzyl)-ureido]-3-thiophen-2-yl-propionic acid]", "IC50": "5 to 20"}, {"smiles": "O=C(O)[C@H](Cc1ccccc1)N(Cc1ccc(-c2nccs2)cc1)C(=O)c1ccc(Cl)cc1Cl", "note": "[compound #2, (2s)-2-[(2,4-Dichloro-benzoyl)-(4-thiazol-2-yl-benzyl)-amino]-3-phenyl-propionic acid]", "IC50": "< 5"}, {"smiles": "O=C(O)[C@H](Cc1ccccc1)N(Cc1ccc(Br)cc1)C(=O)c1ccc(Cl)cc1Cl", "note": "[compound #3, (2s)-2-[(4-Bromo-benzyl)-(2,4-dichloro-benzoyl)-amino]-3-phenyl-propionic acid]", "IC50": "< 5"}, {"smiles": "COc1cc(C)c(S(=O)(=O)N(Cc2ccc(-c3cc4ccccc4o3)cc2)[C@@H](Cc2ccccc2)C(=O)O)c(C)c1C", "note": "[compound #5, (2s)-2-[(4-Benzofuran-2-yl-benzyl) -(4-methoxy-2,3,6-trimethyl-benzenesulfonyl)-amino]-3-phenyl-propionic acid]", "IC50": "< 5"}, {"smiles": "COc1cc(C)c(S(=O)(=O)N(Cc2cccc(-c3cc4ccccc4o3)c2)[C@@H](Cc2ccccc2)C(=O)O)c(C)c1C", "note": "[compound #7, (2s)-2-[(3-Benzofuran-2-yl-benzyl)-(4-methoxy-2,3,6-trimethyl-benzenesulfonyl)-amino]-3-phenyl-propionic acid]", "IC50": "< 5"}, {"smiles": "CCOC(=O)CC(c1cccs1)N(Cc1ccc(I)cc1)S(=O)(=O)c1c(C)cc(OC)c(C)c1C", "note": "(stereo not shown) [compound #8, 3-[(4-Iodo-benzyl)-(4-methoxy-2,3,6-trimethyl-benzenesulfonyl)-amino]-3-thiophen-2-yl-propionic acid ethyl ester]", "IC50": "5 to 20"}, {"smiles": "O=C(O)[C@H](Cc1ccccc1)N(Cc1cccc(Br)c1)C(=O)c1ccccc1Cl", "note": "[compound #10, (2s)-2-[(3-Bromo-benzyl)-(2-chloro-benzoyl)-amino]-3-phenyl-propionic acid]", "IC50": "> 20"}, {"smiles": "O=C(O)[C@H](Cc1ccccc1)N(Cc1cccc(-c2cc3ccccc3o2)c1)C(=O)c1ccc(Cl)cc1Cl", "note": "[compound #11, (2s)-2-[(3-Benzofuran-2-yl-benzyl)-(2,4-dichloro-benzoyl)-amino]-3-phenyl-propionic acid]", "IC50": "5 to 20"}, {"smiles": "O=C(O)[C@H](Cc1ccccc1)N(Cc1ccc(I)cc1)C(=O)c1ccc(Cl)cc1Cl", "note": "[compound #12, (2s)-2-[(2,4-Dichloro-benzoyl)-(4-iodo-benzyl)-amino]-3-phenyl-propionic acid]", "IC50": "5 to 20"}, {"smiles": "COc1cc(C)c(S(=O)(=O)N(Cc2cccc(I)c2)[C@@H](Cc2ccccc2)C(=O)O)c(C)c1C", "note": "[compound #13, (2s)-2-[(3-Iodo-benzyl)-(4-methoxy-2,3,6-trimethyl-benzenesulfonyl)-amino]-3-phenyl-propionic acid]", "IC50": "5 to 20"}, {"smiles": "COc1cc(C)c(S(=O)(=O)N(Cc2ccc(Br)cc2)[C@@H](Cc2ccccc2)C(=O)O)c(C)c1C", "note": "[compound #14, (2s)-2-[(4-Bromo-benzyl)-(4-methoxy-2,3,6-trimethyl-benzenesulfonyl)-amino]-3-phenyl-propionic acid]", "IC50": "5 to 20"}, {"smiles": "COc1cc(C)c(S(=O)(=O)N(Cc2ccc(I)cc2)[C@@H](Cc2ccccc2)C(=O)O)c(C)c1C", "note": "[compound #16, (2s)-2-[(4-Iodo-benzyl)-(4-methoxy-2,3,6-trimethyl-benzenesulfonyl)-amino]-3-phenyl-propionic acid]", "IC50": "5 to 20"}, {"smiles": "COc1cc(C)c(S(=O)(=O)N(Cc2cccc(Br)c2)[C@@H](Cc2ccccc2)C(=O)O)c(C)c1C", "note": "[compound #17, (2s)-2-[(3-Bromo-benzyl)-(4-methoxy-2,3,6-trimethyl-benzenesulfonyl)-amino]-3-phenyl-propionic acid]", "IC50": "5 to 20"}, {"smiles": "COC(=O)c1ccc(-c2ccc(CN([C@@H](Cc3ccccc3)C(=O)O)S(=O)(=O)c3c(C)cc(OC)c(C)c3C)cc2)o1", "note": "[compound #18, (2s)-5-(4-{[(1s-1-Carboxy-2-phenyl-ethyl)-(4-methoxy-2,3,6-trimethyl-benzenesulfonyl)-amino]-methyl}-phenyl)-furan-2-carboxylic acid methyl ester]", "IC50": "> 20"}, {"smiles": "O=C(O)[C@H](Cc1ccccc1)N(Cc1cccc(Br)c1)C(=O)c1ccc(Cl)c(Cl)c1", "note": "[compound #19, (2s)-2-[(3-Bromo-benzyl)-(3,4-dichloro-benzoyl)-amino]-3-phenyl-propionic acid]", "IC50": "> 20"}, {"smiles": "O=C(O)[C@H](Cc1ccccc1)N(Cc1cccc(Br)c1)S(=O)(=O)c1ccc(Cl)cc1Cl", "note": "[compound #20, (2s)-2-[(3-Bromo-benzyl)-(2,4-dichloro-benzenesulfonyl)-amino]-3-phenyl-propionic acid]", "IC50": "> 20"}, {"smiles": "O=C(O)[C@H](Cc1cn(Cc2ccccc2)cn1)N(Cc1cccc(Br)c1)C(=O)c1ccc(Cl)cc1Cl", "note": "[compound #21, (2s)-3-(1-Benzyl-1h-imidazol-4-yl)-2-[(3-bromo-benzyl)-(2,4-dichloro-benzoyl)-amino]-propionic acid]", "IC50": "5 to 20"}, {"smiles": "O=C(O)[C@H](Cc1ccccc1)N(Cc1cccc(Br)c1)C(=O)Cc1ccc(Cl)cc1Cl", "note": "[compound #22, (2s)-2-{(3-Bromo-benzyl)-[(2,4-dichloro-phenyl)-acetyl]-amino}-3-phenyl-propionic acid]", "IC50": "5 to 20"}, {"smiles": "COC(=O)c1ccc(-c2ccc(CN([C@@H](Cc3ccccc3)C(=O)O)S(=O)(=O)c3c(C)cc(OC)c(C)c3C)cc2)s1", "note": "[compound #23, (2s)-5-(4-{[(1s-1-Carboxy-2-phenyl-ethyl)-(4-methoxy-2,3,6-trimethyl-benzenesulfonyl)-amino]-methyl}-phenyl)-thiophene-2-carboxylic acid methyl ester]", "IC50": "> 20"}, {"smiles": "COc1cc(C)c(S(=O)(=O)N(Cc2ccccc2Br)[C@@H](Cc2ccccc2)C(=O)O)c(C)c1C", "note": "[compound #24, (2s)-2-[(2-Bromo-benzyl)-(4-methoxy-2,3,6-trimethyl-benzenesulfonyl)-amino]-3-phenyl-propionic acid]", "IC50": "5 to 20"}]}]}
